From ChEMBL document CHEMBL1141275, “Sesquiterpenoids from Bombax malabaricum” (J Nat Prod, 2007)
Activity calls are given as the source filed them. The calls are words filed in the database; no cut-off is given here.

What was measured:
Format in all cases: functional, cell-based
[1] = tested on: HGC-27; assay: Cytotoxicity against human HGC27 cells by MTT assay
[2] = tested on: A549; assay: Cytotoxicity against human A549 cells by MTT assay
[3] = tested on: HeLa; assay: Cytotoxicity against human HeLa cells by MTT assay

SMILES | IC50 [1] [µM] | other results
COC1=C(C)C(=O)c2c(C(C)C)cc(O)c(C(=O)O)c2C1=O | > 10 | 
COc1c(O)c(C)cc2c(C(C)C)cc(O)c(C=O)c12 | > 10 | 
COc1c(C)cc2c(C(C)C)cc(O)c3c2c1OC3=O | > 10 | 
COC1=C2OC(=O)c3c(O)cc(C(C)C)c(c32)C(=O)C1(C)O (stereo not drawn) [BOMBAMALONE A] | > 10 | 
CC1=C2OC(C)(C)c3cc4c(c(c32)C(=O)C1=O)C(C)(O)C=CO4 (stereo not drawn) [BOMBAMALONE B] | > 10 | Activity [2]: inactive; Activity [3]: inactive
COc1c(O)c(C)cc2c1C(=O)C(=O)C=C2C(C)C [BOMBAMALONE C] | > 10 | 
CC1=C2OC(C)(C)c3cc(O[C@@H]4O[C@H](CO)[C@@H](O)[C@H](O)[C@H]4O)c(C(=O)O)c(c32)C(=O)C1=O [BOMBAMALOSIDE] | > 10 | 
Cc1cc2c(cc1O)[C@@](C)(O)C(=O)C=C2C(C)C [LACINILENE C] | > 10 | 
CC(=O)O[C@H]1C(=O)[C@@]2(C)[C@H]([C@H](OC(=O)c3ccccc3)[C@]3(O)C[C@H](OC(=O)[C@H](O)[C@@H](NC(=O)c4ccccc4)c4ccccc4)C(C)=C1C3(C)C)[C@]1(OC(C)=O)CO[C@@H]1C[C@@H]2O [PACLITAXEL] | 0.778 | IC50 [2]: 0.0126 µM; IC50 [3]: 0.0056 µM
